Test results as given in patent US20110217265A1, “Screening for Inhibitors of HCV Amphipathic Helix (AH) Function” (priority 2008, published 2011).

How the values were obtained:
[1] = tested on: genotype 2b luciferase reporter-linked HCV replicons; assay: HCV replication assay in combination with NS3 protease inhibitor SCH503034; type: cell-based, Hepatitis C Virus; details: combination with various concentrations of SCH503034, FIG. 11
Method: FIG. 11. 4BAH2 inhibitors can increase the anti-HCV activity of agents targeting other elements of HCV. The compound of FIG. 10 was tested in standard HCV replication assays as in FIG. 10 but in the presence of various concentrations of an NS3 protease inhibitor (SCH503034, “SCH”). Note that in these assays a genotype 2b luciferase reporter-linked HCV replicons was used, indicating the broad spectrum potential of the C4 compound against multiple HCV genotypes.
To determine the optimum combination of an HCV AH function inhibiting agent, such as 5-(N-Methyl-N-isobutyl)amiloride, with other anti-HCV agents, HCV replication assays and/or animal studies can be performed in the presence of various combinations of the various anti-HCV agents. Increased inhibition of replication in the presence of an additional agent (above that observed with monotherapy) is evidence for the potential benefit of the combination therapy. For example, HCV replication assays employing a luciferase reporter-linked HCV genome in the presence of various combinations of 3-amino-N-carbamimidoyl-6-chloro-5-(isobutyl(methyl)amino)pyrazine-2-carboxamidepyrazine-2-carboxamide and an NS3 protease inhibitor (SCH503034) are described elsewhere in this application and some results are shown in FIG. 11.
Effect of hits on HCV replication. […]

[2] = tested on: Huh7.5 cells; assay: Alamar Blue cell viability assay; type: cell-based, human; details: in parallel with replication assays, 72 hr
[3] = target: genotype 1b 4BAH2 (Hepatitis C virus genotype 1b, UniProt Q9WMX2); assay: DLS assay of 4BAH2-induced POPC lipid vesicle aggregation, genotype 1b peptide; type: biochemical; parameters: purchased Anaspec Corporation (San Jose, Calif., USA); host or cells: chemical synthesis; details: POPC vesicles
Method: Dynamic light scattering. Dynamic light scattering was performed by a 90Plus particle size analyzer, and the results were analyzed by digital autocorrelator software (Brookhaven Instruments Corporation, New York). All measurements were taken at a scattering angle of 90°, where the reflection effect is minimized. Dynamic light scattering (DLS) is a well established technique for measuring particle size over the size range from a few nanometers to a few microns. The concept uses the idea that small particles in a suspension move in a random pattern, i.e., Brownian motion. When a coherent source of light (such as a laser) having a known frequency is directed at the moving particles, the light is scattered at a different frequency. The shift in light frequency is related to the size of the particles causing the shift. Due to their higher average velocity, smaller particles cause a greater shift in the light frequency than larger particles. […]
Dynamic Light Scattering. Dynamic light scattering (DLS) was performed using a doubled, Nd:YAG laser (model 532 DPSS, Coherent Laser Group, Santa Clara, Calif.) with a wavelength, λ, of […] and a Brookhaven digital autocorrelator, and analyzed by digital autocorrelator software (Brookhaven Instruments Corporation, New York, USA). […] DLS results were analyzed to give an intensity-weighted size distribution using a discrete Laplace inversion routine. […]

Sequence of genotype 1b 4BAH2 (Q9WMX2 1754-1776): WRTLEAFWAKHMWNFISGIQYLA

CC(C)CN(C)c1nc(N)c(C(=O)NC(=N)N)nc1Cl [C4, 3-amino-N-carbamimidoyl-6-chloro-5-(isobutyl(methyl)amino)pyrazine-2-carboxamide] was tested, and the “Effect on anti-HCV activity of NS3 protease inhibitor SCH503034” value [1] was “increases the anti-HCV activity”, the “Cellular toxicity (Alamar Blue viability)” value [2] was “No significant cellular toxicity” and the “Inhibition of genotype 1b 4BAH2-mediated vesicle aggregation (DLS)” value [3] was “inhibited genotype 1b 4BAH2-mediated vesicle aggregation”.
